Measured values published in patent publication US4284620A, “N-(2-Hydroxyethyl)-2,4,6-triiodo-3,5-bis-(2-keto-L-gulonamido)benzamide and radiological compositions containing same” (Mallinckrodt, Inc., priority 1979, dated 1981).
≈ marks a conversion by molar mass, not a printed value. Read-outs that look alike come from different tables or passages of the source.

Key:
[1] = tested on: Swiss mice; assay: Acute Intracerebral Toxicity in Mice; conditions: mice, intracerebral, 350-450 mg I/ml, seven day observation; 95% confidence limits 560-4806
Excerpt: (§1) The following pharmacological studies were run on the N-(2-hydroxyethyl)-2,4,6-triiodo-3,5-bis-(2-keto-L-gulonamido)benzamide prepared according to Method B (PRODUCT).
(§2) Employing a slightly modified version of the technique developed by Haley and McCormick (Brit. J. Pharmacol. 12: 12-15, 1957), young adult male and female Swiss mice received injections of a solution of the PRODUCT directly into lateral ventricles and brain tissue.

[2] = in vivo; conditions: mouse, in vivo
Excerpt: as §1, §2

[3] = tested on: vascular and urinary systems; assay: Radiographic visualization in mouse after intravenous injection; type: in vivo; conditions: I.V.
Protocol: A female mouse (19 g) was anesthetized with sodium pentobarbital (60 mg/kg, i/p.).

[4] = tested on: subarachnoid space; assay: Radiographic visualization in rat after intracisternal injection; type: in vivo; conditions: 175 mg I/kg (37% I solution) intracisternally, 10 seconds after administration
Protocol: A pentobarbital-anesthetized rat (233 gm) received 175 mg I/kg (37% I solution) of the compound intracisternally.

[5] = tested on: Sprague Dawley rats; assay: Acute Intracisternal Toxicity in Rats; conditions: rats, intracisternal, 400 mg I/ml, two day observation; 95% confidence limits 462-655
Excerpt: as §1
(§3) A variation of the technique described by Melartin et al. (Invest. Radiol. 5: 13-21, 1970) was utilized to evaluate lethal effects of a solution of the PRODUCT after injection into cerebrospinal fluid at the cisterna magna. Young adult male and female Sprague Dawley rats were used. After dosing, the animals were housed individually and observed for immediate reactions and periodically for a two day observation period.

[6] = in vivo; conditions: rat, in vivo
Excerpt: as §1, §3

[7] = Solubility in water; type: physicochemical
Protocol: (§4) Nmr data are consistent with the assigned structure IX. The compound softens with darkening at 233°-238° and decomposes above 240°.
Elemental analysis; Calcd for C21 H26 I3 N3 O14 (after correction for 3.58% H2 O): C, 26.29; H, 3.13; I, 39.67; N, 4.38; Found: C, 26.20; H, 3.12; N, 4.09; I, not determined.

[8] = Stability in aqueous solution by tlc and lc analysis; type: physicochemical
Protocol: as §4

[9] = tested on: dogs; assay: Acute Intracisternal Neurotoxicity in Dogs; conditions: dog, in vivo
Protocol: (§5) Adult dogs of either sex were employed for this procedure and were briefly anesthetized with thiopentol sodium during the injection of a solution of the PRODUCT. The compound was administered into cerebrospinal fluid at the cisterna magna at varying concentrations but at a constant 0.5 ml/kg volume dose. Animals were thereafter observed for neurotoxicity with the following results: […]

[10] = Acute Intracisternal Neurotoxicity in Dogs; conditions: dog, in vivo; dogs, intracisternal, 244 mg I/kg; read-out: Respiratory arrest (death)
Protocol: as §5

[11] = tested on: Swiss mice; assay: Acute Intravenous Toxicity in Mice; conditions: mice, intravenous, 400 mg I/ml, 1 ml/min, seven day observation; 95% confidence limits 16,499-20,075
Protocol: as §1
(§6) A solution of the PRODUCT was injected into the lateral tail vein of yound adult male and female Swiss mice at a rate of 1 ml/min.

[12] = in vivo; conditions: mouse, in vivo, iv
Protocol: as §1, §6

## O=C(Nc1c(I)c(NC(=O)C(=O)[C@@H](O)[C@H](O)[C@@H](O)CO)c(I)c(C(=O)NCCO)c1I)C(=O)[C@@H](O)[C@H](O)[C@@H](O)CO [IX, N-(2-Hydroxyethyl)-2,4,6-triiodo-3,5-bis-(2-keto-L-gulonamido)benzamide]
[1]
  LD50: 1,640 mg I/kg
[2]
  LD50 at 168 h: 3980 mg/kg
[3]; female mouse, 10,000 mg I/kg (37% I solution), 5 seconds after administration
  visualization of the vascular system, whole body left lateral radiograph: good visualization of the vascular system
[3]; mouse, 30 seconds after contrast administration
  images of the vascular system, posteroanterior radiograph: good images of the vascular
[3]; mouse, 5 minutes after contrast administration
  images of the urinary system, posteroanterior radiograph: good images of the vascular and urinary systems
[4]
  visualization of the subarachnoid space in the upper cervical, cisternal and basal cistern regions: good visualization of the subarachnoid space
[5]
  LD50: 550 mg I/kg
[6]
  LD50 at 48 h: 1340 mg/kg
[7]; Method A product, read-out: highly water soluble
  solubility: ≥ 1000 mg/mL
[7]; Method B product, read-out: solubility
  solubility: 1000 mg/mL (≈ 1080 mM)
[8]
  stable in aqueous solution: stable in aqueous solution
[9]
  Minimum Convulsion Dose: > 244 mg I/kg
[10]
  mortality: 50%
[11]
  LD50: 18,200 mg I/kg
[12]
  LD50 at 168 h: 44200 mg/kg
